Results as given in patent US9359395B2, “Prodrugs of steroidal CYP17 inhibitors/antiandrogens” (Tokai Pharmaceuticals, Inc., priority 2009, dated 2016).

Columns and labels:
[1] = mice, cited from earlier work; for detectability in plasma at 8 hours / peak plasma levels: s.c. 50 mg/kg
[2] = Oral bioavailability in rats; settings: rat, in vivo, initial studies
AR = settings: cited from earlier work
[3] = test system: androgen-dependent LAPC4 human prostate tumor xenograft; settings: cited from earlier work; for inhibiting the growth of LAPC4 xenograft: in vivo

| bioavailability [2] [%] | SMILES | detectability in plasma at 8 hours [1] | peak plasma levels [1] [ng/mL] | conversion into metabolite ([1]; metabolite tentatively identified as 17-(1H-benzimidazol-1-yl)androsta-3-one) | AR antagonist activity (AR) | reduction in the mean final tumor volume compared with controls ([3]; 50 mg/kg, twice daily, P=0.00065) [%] | efficacy compared with castration ([3]; 50 mg/kg, twice daily) | inhibiting the growth of LAPC4 xenograft [3] |
| --- | --- | --- | --- | --- | --- | --- | --- | --- |
| ~10 | C[C@]12CC[C@H](O)CC1=CCC1C2CC[C@]2(C)C(n3cnc4ccccc43)=CCC12 (stereo partly drawn) [Compound 5, 3-β-hydroxy-17-(1H-benzimidazole-1-yl)androsta-5,16-diene] | neither was detectable | 16.82 | rapidly converted into a metabolite | potent pure AR antagonists | 93.8 | significantly more effective than castration | very effective |
| – | C[C@]12CCC(=O)C=C1CCC1C2CC[C@]2(C)C(n3cnc4ccccc43)=CCC12 (stereo partly drawn) [Compound 6, 17-(1H-benzimidazole-1-yl)androsta-4,16-diene-3-one] | neither was detectable | 5.15 | – | potent pure AR antagonists | – | – | ineffective |
